Here are results for 25 compounds from patent publication US9504251B2, “Pesticidal compositions and related methods” (Dow AgroSciences LLC, priority 2014, dated 2016).

For assay [1], the system named is Sweetpotato Whitefly-crawler (Bemisia tabaci) (WF) (BEMITA). Kind of assay: Sweetpotato whitefly-crawler (WF) foliar spray assay on cotton plants. In kind it is in vivo. Conditions: 216 h, 200 ppm foliar spray on cotton plants, graded after 9 days, read-out: WF % Control (or Mortality) rating. As for the experimental part:
Foliar spray assay for WF was prepared as follows: Cotton plants (Gossypium hirsutum) grown in 3-inch pots, with 1 small (4-5 cm) true leaf, were used as test substrate. The plants were infested with 200-400 whitefly eggs 4-5 days prior to chemical application. Four pots with individual plants were used for each treatment. Tested compounds (2 mg) were dissolved in 1 mL of acetone solvent, forming stock solutions of 2000 ppm tested compound.
The stock solutions were diluted ten times with 0.025% TWEEN® 20 surfactant in H2O (diluents) to obtain the solution at 200 ppm tested compound. A hand-held aspirator-type sprayer was used for spraying the solution to both sides of cotton leaves until runoff. The control plants (solvent check) were sprayed with the diluent only containing 10% by volume of acetone solvent. Treated plants were held in a holding room for 9 days at approximately 25° C. and ambient relative humidity (RH) prior to grading. Evaluation was conducted by counting the number of live 3-4 nymph stage per plant under a microscope. Percent control was measured by using Abbott's correction formula (W. S. Abbott, “A Method of Computing the Effectiveness of an Insecticide,” J. Econ. Entomol. 18 (1925), pp. 265-267) as follows. Corrected % Control=100*(X−Y)/X
X=No. of live nymphs on solvent check plants and
Y=No. of live nymphs on treated plants.
(§1) The comparative compounds were tested for insecticidal activities against GPA and WF pests using the same test protocols described above for the disclosed compounds.

Assay [2] relates to Green Peach Aphid (Myzus persicae) (GPA) (MYZUPE). Kind of assay: Green peach aphid (GPA) foliar spray bioassay on cabbage seedlings. It counts as in vivo. The note with it: 72 h, 200 ppm foliar spray on cabbage seedlings, graded after three days, read-out: GPA % Control (or Mortality) rating. The protocol: Bioassay for GPA was prepared as follows: Cabbage seedlings grown in 3-inch pots, with 2-3 small (3-5 cm) true leaves, were used as test substrate. The seedlings were infested with 20-50 GPA (adult and nymph stages) one day prior to chemical application. Four pots with individual seedlings were used for each treatment. The tested compounds (2 mg) were dissolved in 2 mL of acetone/methanol (1:1) solvent to form stock solutions of 1000 ppm tested compound. The stock solutions were diluted five times with an aqueous solution containing 0.025% TWEEN® 20 surfactant, which is polyoxyethylene (20) sorbitan monolaurate, to obtain the solution at 200 ppm tested compound. A hand-held aspirator-type sprayer was used for spraying the solution to both sides of cabbage leaves until runoff. The control plants (solvent check) were sprayed with the diluent only containing 20% by volume of acetone/methanol (1:1) solvent. Treated plants were held in a holding room for three days at approximately 25° C. and ambient relative humidity (RH) prior to grading. Evaluation was conducted by counting the number of live aphids per plant under a microscope. Percent control was measured by using Abbott's correction formula (W. S. Abbott, “A Method of Computing the Effectiveness of an Insecticide,” J. Econ. Entomol. 18 (1925), pp. 265-267) as follows. Corrected % Control=100*(X−Y)/X
X=No. of live aphids on solvent check plants and
Y=No. of live aphids on treated plants
as §1

Where [3] appears, read: Abbott-corrected % control, disclosed compounds (TABLE 2).
Where [4] appears, read: same protocol, comparative compounds (TABLE 3).

Where two headings read alike, the source gives them in different places. Where only a bound is given, the exact number is not on record here.

Broadly, the mortality is the percentage killed. On to `O=C1c2cn(-c3cccnc3)nc2CCN1CC(=NOCc1ccccc1)c1cccc(C(F)(F)F)c1` (single isomer, unassigned) [Compound P38, 5-(2-((benzyloxy)imino)-2-(3-(trifluoromethyl)phenyl)ethyl)-2-(pyridin-3-yl)-2,5,6,7-tetrahydro-4H-pyrazolo[4,3-c]pyridin-4-one], for which the mortality at 200 ppm in assay [1] (setting [3]) and in assay [2] (setting [3]) was 0 to 80% each time.

As to `O=C1c2cn(-c3cccnc3)nc2CCN1CC(=NOCc1ccccc1)c1ccc(C(F)(F)F)cc1` (single isomer, unassigned) [Compound P39, 5-(2-((benzyloxy)imino)-2-(4-(trifluoromethyl)phenyl)ethyl)-2-(pyridin-3-yl)-2,5,6,7-tetrahydro-4H-pyrazolo[4,3-c]pyridin-4-one], the mortality at 200 ppm in assay [1] (setting [3]) and in assay [2] (setting [3]) was 0 to 80% each time.

As for `O=C1c2cn(-c3ccccn3)nc2CCN1c1ccc(C(F)(F)F)cn1` [CE6, 2-(2-Pyridyl)-5-[5-(trifluoromethyl)-2-pyridyl]-6,7-dihydropyrazolo[4,3-c]pyridin-4-one, reference compound], the values for the mortality at 200 ppm in assay [1] (setting [4]) and in assay [2] (setting [4]) were below 0% and 0 to 80%, respectively.

Take `CON(C)C(=O)CN1CCc2nn(-c3cccnc3)cc2C1=O` [Compound CA3, N-methoxy-N-methyl-2-(4-oxo-2-(pyridin-3-yl)-2,4,6,7-tetrahydro-5H-pyrazolo[4,3-c]pyridin-5-yl)acetamide]: the mortality at 200 ppm in assay [1] (setting [3]) and in assay [2] (setting [3]) was 80 to 100% throughout.

For `O=C1NCCc2nn(-c3ccccn3)cc21` [Compound CE1, 2-(pyridin-2-yl)-6,7-dihydro-2H-pyrazolo[4,3-c]pyridin-4(5H)-one, reference compound], the mortality at 200 ppm in assay [1] (setting [4]) is 0 to 80%; in assay [2] (setting [4]), below 0%.

In the case of `CSCN1CCc2nn(-c3ccncc3)cc2C1=O` [Compound CE2, 5-(methylsulfanylmethyl)-2-(4-pyridyl)-6,7-dihydropyrazolo[4,3-c]pyridin-4-one, reference compound], the mortality at 200 ppm in assay [1] (setting [4]) and in assay [2] (setting [4]) was 0 to 80% in each case.

For the compound `CSCN1CCc2nn(-c3ccccn3)cc2C1=O` [Compound CE3, 5-(Methylsulfanylmethyl)-2-(2-pyridyl)-6,7-dihydropyrazolo[4,3-c]pyridin-4-one, reference compound], the mortality at 200 ppm in assay [1] (setting [4]) and in assay [2] (setting [4]) was below 0% throughout.

`O=C1c2cn(-c3ccccn3)nc2CCN1c1cccc(OC(F)(F)F)c1` [Compound CE4, 2-(2-Pyridyl)-5-[3-(trifluoromethoxy)phenyl]-6,7-dihydropyrazolo[4,3-c]pyridin-4-one, reference compound]: the mortality at 200 ppm in assay [1] (setting [4]) and in assay [2] (setting [4]) was below 0% throughout.

`O=C1c2cn(-c3ccccn3)nc2CCN1c1cccc(C(F)(F)F)n1` [Compound CE5, reference compound]: the mortality at 200 ppm in assay [1] (setting [4]) and in assay [2] (setting [4]) was below 0% in each case.

`O=C1c2cn(-c3ccccn3)nc2CCN1c1cc(C(F)(F)F)ccn1` [Compound CE7, 2-(2-Pyridyl)-5-[4-(trifluoromethyl)-2-pyridyl]-6,7-dihydropyrazolo[4,3-c]pyridin-4-one, reference compound]: the mortality at 200 ppm in assay [1] (setting [4]) was below 0%; in assay [2] (setting [4]), 0 to 80%.

Take `O=C1c2cn(-c3cccnc3)nc2CCN1CC1CC1` [Compound F1, 5-(cyclopropylmethyl)-2-(pyridin-3-yl)-6,7-dihydro-2H-pyrazolo[4,3-c]pyridin-4(5H)-one]: the mortality at 200 ppm in assay [1] (setting [3]) and in assay [2] (setting [3]) was 80 to 100% in each case.

`O=C1NCCc2nn(-c3cccnc3)cc21` [Compound F2, 2-(pyridin-3-yl)-6,7-dihydro-2H-pyrazolo[4,3-c]pyridin-4(5H)-one]: the mortality at 200 ppm in assay [1] (setting [3]) lay within 0 to 80%; in assay [2] (setting [3]), 80 to 100%.

Take `O=C1c2cn(-c3cccnc3)nc2CCN1c1cccc(C(F)(F)F)c1` [Compound F4, 2-(3-Pyridyl)-5-[3-(trifluoromethyl)phenyl]-6,7-dihydropyrazolo[4,3-c]pyridin-4-one]: the values for the mortality at 200 ppm in assay [1] (setting [3]) and in assay [2] (setting [3]) were 0 to 80% and 80 to 100%, respectively.

For `O=C1c2cn(-c3cccnc3)nc2CCN1c1ccnc(C(F)(F)F)c1` [Compound F5, 2-(3-Pyridyl)-5-[2-(trifluoromethyl)-4-pyridyl]-6,7-dihydropyrazolo[4,3-c]pyridin-4-one], the values for the mortality at 200 ppm in assay [1] (setting [3]) and in assay [2] (setting [3]) were 0 to 80% and 80 to 100%, respectively.

As to `CC(C)N1CCc2nn(-c3cccnc3)cc2C1=O` [Compound F6, 5-Isopropyl-2-(3-pyridyl)-6,7-dihydropyrazolo[4,3-c]pyridin-4-one], the mortality at 200 ppm in assay [1] (setting [3]) and in assay [2] (setting [3]) was 80 to 100% in each case.

As to `O=C1c2cn(-c3cccnc3)nc2CCN1c1cc(C(F)(F)F)ccn1` [Compound F7, 2-(3-Pyridyl)-5-[4-(trifluoromethyl)-2-pyridyl]-6,7-dihydropyrazolo[4,3-c]pyridin-4-one], the mortality at 200 ppm in assay [1] (setting [3]) and in assay [2] (setting [3]) was 80 to 100% throughout.

As for `CCOC(=O)CN1CCc2nn(-c3cccnc3)cc2C1=O` [Compound F8, ethyl 2-(4-oxo-2-(pyridin-3-yl)-6,7-dihydro-2H-pyrazolo[4,3-c]pyridin-5(4H)-yl)acetate], the mortality at 200 ppm in assay [1] (setting [3]) and in assay [2] (setting [3]) was 80 to 100% in each case.

For the compound `O=C1c2cn(-c3cccnc3)nc2CCN1c1ncccc1C(F)(F)F` [Compound F10, 2-(3-Pyridyl)-5-[3-(trifluoromethyl)-2-pyridyl]-6,7-dihydropyrazolo[4,3-c]pyridin-4-one], the mortality at 200 ppm in assay [1] (setting [3]) and in assay [2] (setting [3]) was 0 to 80% in each case.

Turning to `CSCCC(=O)N1CCc2nn(-c3cccnc3)cc2C1=O` [Compound F12, 5-(3-(methylthio)propanoyl)-2-(pyridin-3-yl)-6,7-dihydro-2H-pyrazolo[4,3-c]pyridin-4(5H)-one], the mortality at 200 ppm in assay [1] (setting [3]) fell in the range of 0 to 80%; in assay [2] (setting [3]), 80 to 100%.

For `O=C1c2cn(-c3cccnc3)nc2CCN1c1ccc(C(F)(F)F)cc1` [Compound F13, 2-(3-Pyridyl)-5-[4-(trifluoromethyl)phenyl]-6,7-dihydropyrazolo[4,3-c]pyridin-4-one], the mortality at 200 ppm lay within 0 to 80% in assay [1] (setting [3]) and 80 to 100% in assay [2] (setting [3]).

As for `O=C1c2cn(-c3cccnc3)nc2CCN1c1ccc(OC(F)(F)F)cc1` [Compound F14, 2-(3-Pyridyl)-5-[4-(trifluoromethoxy)phenyl]-6,7-dihydropyrazolo[4,3-c]pyridin-4-one], the mortality at 200 ppm fell in the range of 0 to 80% in assay [1] (setting [3]) and 80 to 100% in assay [2] (setting [3]).

For the compound `COc1ccccc1CN1CCc2nn(-c3cccnc3)cc2C1=O` [Compound F15, 5-[(2-Methoxyphenyl)methyl]-2-(3-pyridyl)-6,7-dihydropyrazolo[4,3-c]pyridin-4-one], the results for the mortality at 200 ppm in assay [1] (setting [3]) and in assay [2] (setting [3]) were 80 to 100% and 0 to 80%, respectively.

As for `O=C1c2cn(-c3cccnc3)nc2CCN1Cc1ccccc1F` [Compound F17, 5-(2-fluorobenzyl)-2-(pyridin-3-yl)-6,7-dihydro-2H-pyrazolo[4,3-c]pyridin-4(5H)-one], the mortality at 200 ppm in assay [1] (setting [3]) fell in the range of 80 to 100%; in assay [2] (setting [3]) it was 0 to 80%.

As to `COc1cccc(N2CCc3nn(-c4cccnc4)cc3C2=O)n1` [Compound F18, 5-(6-Methoxy-2-pyridyl)-2-(3-pyridyl)-6,7-dihydropyrazolo[4,3-c]pyridin-4-one], the mortality at 200 ppm in assay [1] (setting [3]) and in assay [2] (setting [3]) was 0 to 80% each time.

On to `O=C1c2cn(-c3cccnc3)nc2CCN1CCSCCC(F)(F)F` [Compound F19, 2-(pyridin-3-yl)-5-(2-((3,3,3-trifluoropropyl)thio)ethyl)-6,7-dihydro-2H-pyrazolo[4,3-c]pyridin-4(5H)-one], for which the mortality at 200 ppm in assay [1] (setting [3]) and in assay [2] (setting [3]) was 80 to 100% throughout.
